pIC50: −log10 of the molar value.
What follows are molecules tested against T1, human full-length MKNK1 (Homo sapiens, UniProt Q9BUB5, T385D) (assay: MKNK1 kinase high ATP assay (TR-FRET)). Settings: 2 mM ATP, after preincubation with MKNK1; read-out: MKNK1 IC50 (MKNK1 high ATP).
T1 construct: GST (N); purchased Carna Biosciences 02-145; host or cells: insect cells (baculovirus expression system)
Assay type: biochemical
Summary of the method: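 Compound was preincubated 15 min at 22° C. with MKNK1 in 50 mM HEPES pH 7.5, 5 mM MgCl2, 1.0 mM DTT, then the reaction ran 30 min at 22° C. with 2 mM ATP and 0.06 μM biotinylated peptide (final).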

T1 sequence (Q9BUB5 1-424 isoform Q9BUB5-2 T344D): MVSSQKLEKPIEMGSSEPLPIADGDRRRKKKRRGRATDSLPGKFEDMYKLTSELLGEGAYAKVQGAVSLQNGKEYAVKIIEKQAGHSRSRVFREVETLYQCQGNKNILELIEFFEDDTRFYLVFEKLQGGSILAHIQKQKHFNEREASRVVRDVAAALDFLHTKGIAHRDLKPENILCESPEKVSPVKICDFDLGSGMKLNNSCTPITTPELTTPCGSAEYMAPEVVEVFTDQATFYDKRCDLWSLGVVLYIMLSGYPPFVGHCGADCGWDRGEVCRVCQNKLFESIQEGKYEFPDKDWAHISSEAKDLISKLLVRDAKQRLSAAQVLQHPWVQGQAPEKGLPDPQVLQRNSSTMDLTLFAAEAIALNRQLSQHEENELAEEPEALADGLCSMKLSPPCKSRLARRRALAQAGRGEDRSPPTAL

Compound	pIC50
NC(=O)C1CCc2c(sc3ncnc(Nc4ccc5[nH]ncc5c4)c23)C1 (stereo not shown) [Example 3, 4-(1H-Indazol-5-ylamino)-5,6,7,8-tetrahydro[1]benzothieno[2,3-d]pyrimidine-7-carboxamide]	8.10
O=C(Nc1ccccc1)C1CCc2c(sc3ncnc(Nc4ccc5[nH]ncc5c4)c23)C1 (stereo not shown) [Example 5, 4-(1H-Indazol-5-ylamino)-N-phenyl-5,6,7,8-tetrahydro[1]benzothieno[2,3-d]pyrimidine-7-carboxamide]	8.05
CC(C)NC(=O)C1CCc2c(sc3ncnc(Nc4ccc5[nH]ncc5c4)c23)C1 (stereo not shown) [Example 6, 4-(1H-Indazol-5-ylamino)-N-isopropyl-5,6,7,8-tetrahydro[1]benzothieno[2,3-d]pyrimidine-7-carboxamide]	8.40
O=C(NCC1CC1)C1CCc2c(sc3ncnc(Nc4ccc5[nH]ncc5c4)c23)C1 (stereo not shown) [Example 7, N-(Cyclopropylmethyl)-4-(1H-indazol-5-ylamino)-5,6,7,8-tetrahydro[1]benzothieno[2,3-d]pyrimidine-7-carboxamide]	8.22
CN1CCN(C(=O)C2CCc3c(sc4ncnc(Nc5ccc6[nH]ncc6c5)c34)C2)CC1 (stereo not shown) [Example 8, [4-(1H-Indazol-5-ylamino)-5,6,7,8-tetrahydro[1]benzothieno[2,3-d]pyrimidin-7-yl](4-methylpiperazin-1-yl)methanone]	7.96
CNC(=O)C1CCc2c(sc3ncnc(Nc4ccc5[nH]ncc5c4)c23)C1 (stereo not shown) [Example 11, 4-(1H-indazol-5-ylamino)-N-methyl-5,6,7,8-tetrahydro[1]benzothieno[2,3-d]pyrimidine-7-carboxamide]	8.00
COc1cccc(NC(=O)C2CCc3c(sc4ncnc(Nc5ccc6[nH]ncc6c5)c34)C2)c1 (stereo not shown) [Example 13, 4-(1H-indazol-5-ylamino)-N-(3-methoxyphenyl)-5,6,7,8-tetrahydro[1]benzothieno[2,3-d]pyrimidine-7-carboxamide]	8.15
COc1ccc(NC(=O)C2CCc3c(sc4ncnc(Nc5ccc6[nH]ncc6c5)c34)C2)cc1 (stereo not shown) [Example 14, 4-(1H-indazol-5-ylamino)-N-(4-methoxyphenyl)-5,6,7,8-tetrahydro[1]benzothieno[2,3-d]pyrimidine-7-carboxamide]	8.15
Cc1ccccc1NC(=O)C1CCc2c(sc3ncnc(Nc4ccc5[nH]ncc5c4)c23)C1 (stereo not shown) [Example 15, 4-(1H-indazol-5-ylamino)-N-(2-methylphenyl)-5,6,7,8-tetrahydro[1]benzothieno[2,3-d]pyrimidine-7-carboxamide]	8.52
Cc1ccc(NC(=O)C2CCc3c(sc4ncnc(Nc5ccc6[nH]ncc6c5)c34)C2)cc1 (stereo not shown) [Example 17, 4-(1H-indazol-5-ylamino)-N-(4-methylphenyl)-5,6,7,8-tetrahydro[1]benzothieno[2,3-d]pyrimidine-7-carboxamide]	8.30
COc1cccc(CNC(=O)C2CCc3c(sc4ncnc(Nc5ccc6[nH]ncc6c5)c34)C2)c1 (stereo not shown) [Example 19, 4-(1H-indazol-5-ylamino)-N-(3-methoxybenzyl)-5,6,7,8-tetrahydro[1] benzothieno [2,3-d]pyrimidine-7-carboxamide]	8.70
COc1ccccc1CNC(=O)C1CCc2c(sc3ncnc(Nc4ccc5[nH]ncc5c4)c23)C1 (stereo not shown) [Example 22, 4-(1H-Indazol-5-ylamino)-N-(2-methoxybenzyl)-5,6,7,8-tetrahydro[1] benzothieno[2,3-d] pyrimidine-7-carboxamide]	8.52
O=C(NCc1ccc2c(c1)OCO2)C1CCc2c(sc3ncnc(Nc4ccc5[nH]ncc5c4)c23)C1 (stereo not shown) [Example 23, N-(1,3-Benzodioxol-5-ylmethyl)-4-(1H-indazol-5-ylamino)-5,6,7,8-tetrahydro[1] benzothieno [2,3-d]pyrimidine-7-carboxamide]	8.52
O=C(NCc1ccc(F)cc1)C1CCc2c(sc3ncnc(Nc4ccc5[nH]ncc5c4)c23)C1 (stereo not shown) [Example 24, N-(4-Fluorobenzyl)-4-(1H-indazol-5-ylamino)-5,6,7,8-tetrahydro[1] benzothieno [2,3-d]pyrimidine-7-carboxamide]	8.52
COc1ccc(CCNC(=O)C2CCc3c(sc4ncnc(Nc5ccc6[nH]ncc6c5)c34)C2)cc1 (stereo not shown) [Example 25, 4-(1H-Indazol-5-ylamino)-N-[2-(4-methoxyphenyl)ethyl]-5,6,7,8-tetrahydro[1] benzothieno [2,3-d]pyrimidine-7-carboxamide]	8.52
CN(Cc1ccncc1)C(=O)C1CCc2c(sc3ncnc(Nc4ccc5[nH]ncc5c4)c23)C1 (stereo not shown) [Example 26, 4-(1H-Indazol-5-ylamino)-N-methyl-N-(pyridin-4-ylmethyl)-5,6,7,8-tetrahydro[1] benzothieno [2,3-d]pyrimidine-7-carboxamide]	8.52
Cc1ccc(CNC(=O)C2CCc3c(sc4ncnc(Nc5ccc6[nH]ncc6c5)c34)C2)cc1 (stereo not shown) [Example 27, 4-(1H-Indazol-5-ylamino)-N-(4-methylbenzyl)-5,6,7,8-tetrahydro[1] benzothieno [2,3-d]pyrimidine-7-carboxamide]	8.52
O=C(NCc1ccc(C(F)(F)F)cc1)C1CCc2c(sc3ncnc(Nc4ccc5[nH]ncc5c4)c23)C1 (stereo not shown) [Example 28, 4-(1H-Indazol-5-ylamino)-N-[4-(trifluoromethyl)benzyl]-5,6,7,8-tetrahydro[1] benzothieno [2,3-d]pyrimidine-7-carboxamide]	8.40
O=C(NCc1ccncc1)C1CCc2c(sc3ncnc(Nc4ccc5[nH]ncc5c4)c23)C1 (stereo not shown) [Example 29, 4-(1H-Indazol-5-ylamino)-N-(pyridin-4-ylmethyl)-5,6,7,8-tetrahydro[1] benzothieno [2,3-d]pyrimidine-7-carboxamide]	8.40
COc1ccc(CNC(=O)C2CCc3c(sc4ncnc(Nc5ccc6[nH]ncc6c5)c34)C2)cc1 (stereo not shown) [Example 30, 4-(1H-Indazol-5-ylamino)-N-(4-methoxybenzyl)-5,6,7,8-tetrahydro[1] benzothieno [2,3-d]pyrimidine-7-carboxamide]	8.40
O=C(NCCOc1ccccc1)C1CCc2c(sc3ncnc(Nc4ccc5[nH]ncc5c4)c23)C1 (stereo not shown) [Example 31, 4-(1H-Indazol-5-ylamino)-N-(2-phenoxyethyl)-5,6,7,8-tetrahydro[1] benzothieno [2,3-d]pyrimidine-7-carboxamide]	8.40

Continued, values first:

pIC50	Compound
8.66	CN(C)C(=O)C1CCc2c(sc3ncnc(Nc4cc5cn[nH]c5cc4OCCCCl)c23)C1 (racemic) [Example 267, (RS)-4-{[6-(3-Chloropropoxy)-1H-indazol-5-yl]amino}-N,N-dimethyl-5,6,7,8-tetrahydro[1]benzothieno[2,3-d]pyrimidine-7-carboxamide]
9.40	CCOc1cc2[nH]ncc2cc1Nc1ncnc2sc3c(c12)CCC(C(=O)N(C)CCNC(=O)OC(C)(C)C)C3 (racemic) [Example 268, (RS)-tert-Butyl {2-[({4-[(6-ethoxy-1H-indazol-5-yl)amino]-5,6,7,8-tetrahydro[1]benzothieno[2,3-d]pyrimidin-7-yl}carbonyl)(methyl)amino]ethyl}carbamate]
8.57	CCCOc1cc2[nH]ncc2cc1Nc1ncnc2sc3c(c12)CCC(C(=O)N(C)C)C3 (racemic) [Example 269, (RS)—N,N-Dimethyl-4-[(6-propoxy-1H-indazol-5-yl)amino]-5,6,7,8-tetrahydro[1]benzothieno[2,3-d]pyrimidine-7-carboxamide]
9.40	CCOc1cc2[nH]ncc2cc1Nc1ncnc2sc3c(c12)CCC(C(=O)N1CCN2CCCCC2C1)C3 (racemic) [Example 270, {(7RS)-4-[(6-Ethoxy-1H-indazol-5-yl)amino]-5,6,7,8-tetrahydro[1]benzothieno[2,3-d]pyrimidin-7-yl}[(9aRS)-octahydro-2H-pyrido[1,2-a]pyrazin-2-yl]methanone]
9.40	CCOc1cc2[nH]ncc2cc1Nc1ncnc2sc3c(c12)CCC(C(=O)N(C)CCN)C3 (racemic) [Example 271, (RS)-5-({7-[(2-Ammonioethyl)(methyl)carbamoyl]-5,6,7,8-tetrahydro[1]benzothieno[2,3-d]pyrimidin-4-yl}amino)-6-ethoxy-1H-indazol-1-ium bis(trifluoroacetate)]
9.22	COc1cc2[nH]ncc2cc1Nc1ncnc2sc3c(c12)CCC(C(=O)N1CC(O)C1)C3 (racemic) [Example 272, (RS)-(3-Hydroxyazetidin-1-yl){4-[(6-methoxy-1H-indazol-5-yl)amino]-5,6,7,8-tetrahydro[1]benzothieno[2,3-d]pyrimidin-7-yl}methanone]
9.70	CCOc1cc2[nH]ncc2cc1Nc1ncnc2sc3c(c12)CCC(C(=O)N(CC)CCOC)C3 (racemic) [Example 273, (RS)-4-[(6-Ethoxy-1H-indazol-5-yl)amino]-N-ethyl-N-(2-methoxyethyl)-5,6,7,8-tetrahydro[1]benzothieno[2,3-d]pyrimidine-7-carboxamide]
9.00	CCOc1cc2[nH]ncc2cc1Nc1ncnc2sc3c(c12)CCC(C(=O)N1CCC2(CC2)C1)C3 (racemic) [Example 274, (RS)-5-Azaspiro[2.4]hept-5-yl{4-[(6-ethoxy-1H-indazol-5-yl)amino]-5,6,7,8-tetrahydro[1]benzothieno[2,3-d]pyrimidin-7-yl}methanone]
7.70	COc1cc2[nH]ncc2cc1Nc1ncnc2sc3c(c12)CCC(C(=O)N1CC(OC(=O)N(C)C)C1)C3 (racemic) [Example 275, (RS)-1-({4-[(6-Methoxy-1H-indazol-5-yl)amino]-5,6,7,8-tetrahydro[1]benzothieno[2,3-d]pyrimidin-7-yl}carbonyl)azetidin-3-yl dimethylcarbamate]
8.41	CN(C)C(=O)C1CCc2c(sc3ncnc(Nc4cc5cn[nH]c5cc4OCCCN=[N+]=[N-])c23)C1 (racemic) [Example 276, (RS)-4-{[6-(3-Azidopropoxy)-1H-indazol-5-yl]amino}-N,N-dimethyl-5,6,7,8-tetrahydro[1]benzothieno[2,3-d]pyrimidine-7-carboxamide]

From US9540392B2, “Thienopyrimidines” (BAYER PHARMA AKTIENGESELLSCHAFT, priority 2012, dated 2017)
